From the CheMixHub viscosity set
± gives the uncertainty stated by the source.

Experiment: xn = mol fraction of the nth substance listed

Clc1ccccc1 + c1ccccc1
Details | viscosity [mPa·s]
293.15 K, 101.33 kPa, x1 = 0.143 | 0.6759 ± 0.0078
293.3 K, 101.33 kPa, x1 = 0.028 | 0.6845 ± 0.0079
293.55 K, 101.33 kPa, x1 = 0.232 | 0.711 ± 0.0082
293.65 K, 101.33 kPa, x1 = 0.318 | 0.7337 ± 0.0085
298.15 K, 101 kPa, x1 = 0.08 | 0.613 ± 0.017
298.15 K, 101 kPa, x1 = 0.121 | 0.62 ± 0.017
298.15 K, 101 kPa, x1 = 0.162 | 0.623 ± 0.017
298.15 K, 101 kPa, x1 = 0.8 | 0.718 ± 0.019
298.15 K, 101 kPa, x2 = 0.1034 | 0.7546 ± 0.0079
298.15 K, 101 kPa, x2 = 0.2016 | 0.7369 ± 0.0078
298.15 K, 101 kPa, x2 = 0.303 | 0.7233 ± 0.0077
298.15 K, 101 kPa, x2 = 0.4022 | 0.7072 ± 0.0076
298.15 K, 101 kPa, x2 = 0.4985 | 0.6923 ± 0.0075
298.15 K, 101 kPa, x2 = 0.6048 | 0.6743 ± 0.0074
298.15 K, 101 kPa, x2 = 0.6994 | 0.6625 ± 0.0074
298.15 K, 101 kPa, x2 = 0.8033 | 0.6462 ± 0.0073
298.15 K, 101 kPa, x2 = 0.9031 | 0.632 ± 0.0072
303.15 K, 101 kPa, x2 = 0.1126 | 0.7 ± 0.0089
303.15 K, 101 kPa, x2 = 0.2016 | 0.6977 ± 0.0076
303.15 K, 101 kPa, x2 = 0.2221 | 0.6855 ± 0.0087
303.15 K, 101 kPa, x2 = 0.303 | 0.6794 ± 0.0075
303.15 K, 101 kPa, x2 = 0.3286 | 0.6713 ± 0.0085
303.15 K, 101 kPa, x2 = 0.4322 | 0.6573 ± 0.0083
303.15 K, 101 kPa, x2 = 0.4985 | 0.652 ± 0.0073
303.15 K, 101 kPa, x2 = 0.5331 | 0.6432 ± 0.0082
303.15 K, 101 kPa, x2 = 0.6048 | 0.6347 ± 0.0072
303.15 K, 101 kPa, x2 = 0.6314 | 0.6285 ± 0.008
303.15 K, 101 kPa, x2 = 0.6994 | 0.6217 ± 0.0072
303.15 K, 101 kPa, x2 = 0.7271 | 0.6127 ± 0.0078
303.15 K, 101 kPa, x2 = 0.8033 | 0.6064 ± 0.0071
303.15 K, 101 kPa, x2 = 0.8204 | 0.5964 ± 0.0076
303.15 K, 101 kPa, x2 = 0.9031 | 0.5883 ± 0.007
303.15 K, 101 kPa, x2 = 0.9113 | 0.5798 ± 0.0074
303.15 K, 101.33 kPa, x1 = 0.143 | 0.6027 ± 0.007
308.15 K, 101 kPa, x1 = 0.08 | 0.537 ± 0.015
308.15 K, 101 kPa, x1 = 0.121 | 0.544 ± 0.015
308.15 K, 101 kPa, x1 = 0.162 | 0.547 ± 0.015
308.15 K, 101 kPa, x2 = 0.303 | 0.6411 ± 0.0072
308.15 K, 101 kPa, x2 = 0.4022 | 0.6281 ± 0.0072
308.15 K, 101 kPa, x2 = 0.4985 | 0.6109 ± 0.0071
308.15 K, 101 kPa, x2 = 0.6048 | 0.5958 ± 0.007
308.15 K, 101 kPa, x2 = 0.6994 | 0.5832 ± 0.007
308.15 K, 101 kPa, x2 = 0.8033 | 0.5679 ± 0.0069
308.15 K, 101 kPa, x2 = 0.9031 | 0.5512 ± 0.0068
313.05 K, 101.33 kPa, x1 = 0.318 | 0.5743 ± 0.0066
313.15 K, 101 kPa, x2 = 0.303 | 0.6041 ± 0.0071
313.15 K, 101 kPa, x2 = 0.4022 | 0.5902 ± 0.007
313.15 K, 101 kPa, x2 = 0.4985 | 0.5747 ± 0.0069
313.15 K, 101 kPa, x2 = 0.6048 | 0.5628 ± 0.0069
313.15 K, 101 kPa, x2 = 0.6994 | 0.5482 ± 0.0068
313.15 K, 101 kPa, x2 = 0.8033 | 0.5333 ± 0.0067
313.15 K, 101 kPa, x2 = 0.9031 | 0.5146 ± 0.0066
313.15 K, 101.33 kPa, x1 = 0.028 | 0.5278 ± 0.0061
313.15 K, 101.33 kPa, x1 = 0.411 | 0.5831 ± 0.0067
313.25 K, 101.33 kPa, x1 = 0.143 | 0.54 ± 0.0062
313.25 K, 101.33 kPa, x1 = 0.232 | 0.5469 ± 0.0064
313.25 K, 101.33 kPa, x1 = 0.707 | 0.6187 ± 0.0071
313.35 K, 101.33 kPa, x1 = 0.512 | 0.593 ± 0.0069
313.75 K, 101.33 kPa, x1 = 0.073 | 0.5223 ± 0.006
313.75 K, 101.33 kPa, x1 = 0.568 | 0.5979 ± 0.0069
313.75 K, 101.33 kPa, x1 = 0.849 | 0.6472 ± 0.0075
318.15 K, 101 kPa, x1 = 0.08 | 0.475 ± 0.013
318.15 K, 101 kPa, x1 = 0.121 | 0.482 ± 0.013
318.15 K, 101 kPa, x1 = 0.162 | 0.486 ± 0.013
322.85 K, 101.33 kPa, x1 = 0.143 | 0.5005 ± 0.0058
323.15 K, 101 kPa, x1 = 0.08 | 0.444 ± 0.012
323.15 K, 101 kPa, x1 = 0.121 | 0.451 ± 0.012
323.15 K, 101 kPa, x1 = 0.162 | 0.454 ± 0.012
323.15 K, 101 kPa, x1 = 0.8 | 0.541 ± 0.015

C=CC(=O)OCC + C1CCOC1
viscosity [mPa·s], 101 kPa
Details | 293.15 K | 298.15 K | 303.15 K | 308.15 K | 313.15 K | 318.15 K
x2 = 0.0825 | 0.5547 ± 0.023 | 0.5211 ± 0.021 | 0.4896 ± 0.02 | 0.4554 ± 0.019 | 0.4158 ± 0.017 | 0.3758 ± 0.015
x2 = 0.167 | 0.5422 ± 0.022 | 0.5102 ± 0.021 | 0.4802 ± 0.02 | 0.4474 ± 0.018 | 0.4096 ± 0.017 | 0.3711 ± 0.015
x2 = 0.2302 | 0.5338 ± 0.022 | 0.503 ± 0.021 | 0.4739 ± 0.019 | 0.4421 ± 0.018 | 0.4055 ± 0.017 | 0.3682 ± 0.015
x2 = 0.316 | 0.5237 ± 0.021 | 0.4945 ± 0.02 | 0.4666 ± 0.019 | 0.436 ± 0.018 | 0.401 ± 0.016 | 0.3651 ± 0.015
x2 = 0.3892 | 0.5163 ± 0.021 | 0.4883 ± 0.02 | 0.4613 ± 0.019 | 0.4317 ± 0.018 | 0.3978 ± 0.016 | 0.3631 ± 0.015
x2 = 0.4603 | 0.5102 ± 0.021 | 0.4832 ± 0.02 | 0.457 ± 0.019 | 0.4283 ± 0.017 | 0.3954 ± 0.016 | 0.3617 ± 0.015
x2 = 0.5286 | 0.5051 ± 0.021 | 0.4791 ± 0.019 | 0.4535 ± 0.018 | 0.4256 ± 0.017 | 0.3938 ± 0.016 | 0.361 ± 0.015
x2 = 0.5947 | 0.5011 ± 0.02 | 0.4759 ± 0.019 | 0.4509 ± 0.018 | 0.4236 ± 0.017 | 0.3926 ± 0.016 | 0.3607 ± 0.015
x2 = 0.6605 | 0.4979 ± 0.02 | 0.4734 ± 0.019 | 0.4489 ± 0.018 | 0.4222 ± 0.017 | 0.392 ± 0.016 | 0.3609 ± 0.015
x2 = 0.7283 | 0.4954 ± 0.02 | 0.4716 ± 0.019 | 0.4475 ± 0.018 | 0.4213 ± 0.017 | 0.3919 ± 0.016 | 0.3615 ± 0.015
x2 = 0.7874 | 0.4938 ± 0.02 | 0.4707 ± 0.019 | 0.4468 ± 0.018 | 0.421 ± 0.017 | 0.3922 ± 0.016 | 0.3624 ± 0.015
x2 = 0.8689 | 0.4927 ± 0.02 | 0.4702 ± 0.019 | 0.4466 ± 0.018 | 0.4212 ± 0.017 | 0.3931 ± 0.016 | 0.3642 ± 0.015
x2 = 0.936 | 0.4926 ± 0.02 | 0.4705 ± 0.019 | 0.4471 ± 0.018 | 0.4219 ± 0.017 | 0.3944 ± 0.016 | 0.3661 ± 0.015

CCc1ccccc1 + CCCCCC
viscosity [mPa·s], 101 kPa
Details | x2 = 0.14 | x2 = 0.247 | x2 = 0.337 | x2 = 0.486 | x2 = 0.641 | x2 = 0.731
298.15 K | 0.56 ± 0.015 | 0.51 ± 0.014 | 0.47 ± 0.013 | 0.416 ± 0.012 | – | 0.339 ± 0.009
308.15 K | 0.499 ± 0.014 | 0.454 ± 0.013 | 0.421 ± 0.012 | 0.371 ± 0.01 | 0.326 ± 0.009 | 0.302 ± 0.008
323.15 K | 0.426 ± 0.012 | 0.39 ± 0.011 | 0.363 ± 0.01 | 0.321 ± 0.009 | 0.283 ± 0.008 | 0.263 ± 0.007

COCCOCCOCCOCCOC + CO
viscosity [mPa·s], 100 kPa
Details | 293.15 K | 298.15 K | 303.15 K
x2 = 0.0463 | 3.726 ± 0.15 | 3.3 ± 0.14 | 2.916 ± 0.12
x2 = 0.1031 | 3.616 ± 0.15 | 3.209 ± 0.13 | 2.845 ± 0.12
x2 = 0.1978 | 3.408 ± 0.14 | 3.036 ± 0.12 | 2.691 ± 0.11
x2 = 0.3111 | 3.132 ± 0.13 | 2.803 ± 0.12 | 2.493 ± 0.1
x2 = 0.3886 | 2.919 ± 0.12 | 2.611 ± 0.11 | 2.334 ± 0.096
x2 = 0.494 | 2.592 ± 0.11 | 2.326 ± 0.095 | 2.089 ± 0.085
x2 = 0.5935 | 2.25 ± 0.092 | 2.031 ± 0.083 | 1.829 ± 0.074
x2 = 0.6966 | 1.868 ± 0.076 | 1.696 ± 0.069 | 1.537 ± 0.062
x2 = 0.7966 | 1.467 ± 0.06 | 1.344 ± 0.055 | 1.225 ± 0.05
x2 = 0.8472 | 1.243 ± 0.051 | 1.145 ± 0.047 | 1.047 ± 0.043
x2 = 0.8972 | 1.024 ± 0.042 | 0.948 ± 0.039 | 0.871 ± 0.035
x2 = 0.9495 | 0.803 ± 0.033 | 0.744 ± 0.03 | 0.683 ± 0.028

C=CC(=O)OCC + CCCCCCCCO
viscosity [mPa·s], 101.3 kPa
Details | x1 = 0.0771 | x1 = 0.2017 | x1 = 0.2664 | x1 = 0.3869 | x1 = 0.4933 | x1 = 0.6865 | x1 = 0.7722 | x1 = 0.8504 | x1 = 0.9275 | x1 = 0.9634
298.15 K | 5.444 ± 0.23 | 3.576 ± 0.16 | 2.914 ± 0.13 | 2.043 ± 0.094 | 1.543 ± 0.073 | 0.96 ± 0.048 | 0.785 ± 0.04 | 0.681 ± 0.036 | 0.582 ± 0.031 | 0.546 ± 0.03
308.15 K | 4.096 ± 0.18 | 2.812 ± 0.13 | 2.301 ± 0.11 | 1.663 ± 0.078 | 1.268 ± 0.061 | 0.825 ± 0.042 | 0.678 ± 0.036 | 0.586 ± 0.032 | 0.507 ± 0.028 | 0.478 ± 0.027
